Experimental data from the supplement of paper PMC10307832.

Key:
Assay in all cases: relative viability (nuclei count vs DMSO), 5 days (fraction); higher = more cells survive
Sulindac + Pictilisib = compound: CC1=C(CC(=O)O)c2cc(F)ccc2/C1=C\c1ccc([S+](C)[O-])cc1 [Sulindac] + CS(=O)(=O)N1CCN(Cc2cc3nc(-c4cccc5[nH]ncc45)nc(N4CCOCC4)c3s2)CC1 [Pictilisib] (partner 1 µM)
Summary of the method: (§1)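 Lung cancer cell lines were seeded in 1536-well plates and dosed by pin tool the next day, with either a single drug or a fixed anchor-drug dose combined with five library-drug doses (not always all listed) spaced in √10 steps. Five days later, one step fixed the cells and stained their nuclei (final 0.05% Triton X-100, 1% formaldehyde, 1 ug/ml Hoechst), and nuclei were counted on 4× images. Relative viability is the nuclei count in treated wells divided by the count in vehicle wells, and each value is the median of duplicate plates.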

[1] = compound: O=c1[nH]cc(F)c(=O)[nH]1 [5-Fluorouracil] + N=C(N)NC(=N)NCCc1ccccc1 [Phenformin] (partner 250 µM)
Summary of the method: as §1

[2] = compound: CN[C@@H]1C[C@H]2O[C@@](C)([C@@H]1OC)n1c3ccccc3c3c4c(c5c6ccccc6n2c5c31)C(=O)NC4 [Staurosporine] + Cc1nc(NC(=O)N2CCC[C@H]2C(N)=O)sc1-c1ccnc(C(C)(C)C(F)(F)F)c1 [Alpelisib] (partner 2 µM)
Summary of the method: as §1

Sulindac + Trametinib = compound: CC1=C(CC(=O)O)c2cc(F)ccc2/C1=C\c1ccc([S+](C)[O-])cc1 [Sulindac] + CC(=O)Nc1cccc(-n2c(=O)n(C3CC3)c(=O)c3c(Nc4ccc(I)cc4F)n(C)c(=O)c(C)c32)c1 [Trametinib] (partner 0.02 µM)
Summary of the method: as §1

Cell Line	relative viability (Sulindac + Pictilisib; first compound 0.08 µM)	relative viability (Sulindac + Pictilisib; first compound 0.253 µM)	relative viability (Sulindac + Pictilisib; first compound 2.53 µM)	relative viability (Sulindac + Pictilisib; first compound 8 µM)	relative viability ([1]; first compound 0.02 µM)	relative viability ([1]; first compound 0.2 µM)	relative viability ([1]; first compound 0.6325 µM)	relative viability ([1]; first compound 2 µM)	relative viability ([2]; first compound 0.005 µM)	relative viability ([2]; first compound 0.01581 µM)	relative viability ([2]; first compound 0.05 µM)	relative viability ([2]; first compound 0.1581 µM)	relative viability ([2]; first compound 0.5 µM)	relative viability (Sulindac + Trametinib; first compound 0.08 µM)	relative viability (Sulindac + Trametinib; first compound 0.253 µM)	relative viability (Sulindac + Trametinib; first compound 2.53 µM)	relative viability (Sulindac + Trametinib; first compound 8 µM)	relative viability (Sulindac + Pictilisib; first compound 0.8 µM)	relative viability (Sulindac + Trametinib; first compound 0.8 µM)
NCI-H1792	0.286	0.294	0.231	0.313	0.199	0.365	0.177	0.122	0.789	0.499	0.187	0.14	0.117	0.425	0.393	0.512	0.513	–	–
NCI-H1793	0.275	0.329	0.351	0.344	0.467	0.476	0.42	0.266	0.774	0.506	0.593	0.383	0.179	0.352	0.497	0.497	0.481	0.271	–
NCI-H1915	0.975	0.927	0.887	1.05	–	0.34	0.355	0.361	1.11	–	0.587	0.445	0.357	0.303	0.307	0.302	0.303	0.761	0.246
NCI-H1944	0.345	0.347	0.342	0.388	0.195	0.208	0.157	0.135	0.953	–	0.483	0.384	0.341	0.476	0.418	0.421	0.487	0.325	0.328
NCI-H1975	0.301	0.28	0.282	0.286	0.385	0.357	0.266	0.194	0.238	0.201	0.15	0.108	0.104	0.382	0.38	0.356	0.367	–	0.36
NCI-H1993	0.827	0.787	0.732	0.927	0.538	0.514	0.494	0.459	0.623	0.668	0.578	0.503	0.449	0.472	0.569	0.444	0.585	0.769	0.453
NCI-H2009	1.04	0.8	0.71	0.932	0.551	0.548	0.438	0.401	0.864	0.276	0.267	0.173	0.141	0.256	0.266	0.245	0.33	0.788	0.283
NCI-H2023	0.27	0.213	0.222	0.234	0.448	0.181	0.102	0.0896	0.56	0.28	0.274	0.15	0.0702	0.62	0.543	0.493	0.716	0.249	0.427
NCI-H2085	0.459	0.415	0.377	0.447	0.577	0.844	0.761	0.68	0.609	0.53	0.495	0.343	0.28	0.513	0.569	0.435	0.384	0.433	0.576
NCI-H2087	0.951	0.783	0.916	0.984	0.49	0.555	0.438	0.333	0.875	0.624	0.449	0.118	0.125	0.217	0.205	0.207	0.224	0.622	0.158
NCI-H2126	0.46	0.498	0.497	0.479	0.411	0.331	0.314	0.287	0.827	0.636	0.495	0.426	0.341	0.674	0.568	0.51	0.619	0.462	0.553
NCI-H2170	0.274	0.288	0.294	0.322	0.393	0.42	0.341	0.293	0.903	0.611	0.568	0.377	0.281	1.24	0.938	0.936	0.946	0.291	0.83
NCI-H2228	0.488	0.407	0.383	0.603	0.408	0.249	0.259	0.249	0.658	0.204	0.155	0.148	0.0961	0.621	0.675	0.523	0.364	0.244	0.5
NCI-H2347	0.298	0.637	0.6	0.509	0.296	0.489	0.24	0.328	1.03	0.67	0.34	0.364	–	0.279	0.272	0.258	0.271	0.503	0.297
NCI-H2405	0.548	0.459	0.407	0.603	0.394	0.409	0.34	0.369	0.185	0.131	0.101	0.075	0.0622	0.687	0.668	0.634	0.731	0.438	0.581
NCI-H3122	0.675	0.602	0.627	0.621	0.366	0.349	0.21	0.174	1.07	0.302	0.758	0.209	0.217	0.222	0.243	0.214	0.267	0.592	0.203
PC-3 [JPC-3]	0.886	0.81	0.753	0.857	0.48	0.476	0.496	0.45	1.05	–	0.638	0.508	0.39	0.668	0.659	0.695	0.725	0.55	0.701
